The term IC50 denotes the concentration that gives 50% inhibition. One may read the inhibition as the relative decrease from the control value, in per cent.

The results in this text go back to patent US20200165257A1, “INHIBITORS OF PHOSPHOINOSITIDE 3-KINASE AND HISTONE DEACETYLASE FOR TREATMENT OF CANCER” (THE UNITED STATES OF AMERICA, AS REPRESENTED BY THE …, priority 2017, published 2020).

Common to all, as to assay type: biochemical
One experiment deals with T1, HDAC6 (Homo sapiens, UniProt Q9UBN7).
T1 sequence (Q9UBN7 1-1215): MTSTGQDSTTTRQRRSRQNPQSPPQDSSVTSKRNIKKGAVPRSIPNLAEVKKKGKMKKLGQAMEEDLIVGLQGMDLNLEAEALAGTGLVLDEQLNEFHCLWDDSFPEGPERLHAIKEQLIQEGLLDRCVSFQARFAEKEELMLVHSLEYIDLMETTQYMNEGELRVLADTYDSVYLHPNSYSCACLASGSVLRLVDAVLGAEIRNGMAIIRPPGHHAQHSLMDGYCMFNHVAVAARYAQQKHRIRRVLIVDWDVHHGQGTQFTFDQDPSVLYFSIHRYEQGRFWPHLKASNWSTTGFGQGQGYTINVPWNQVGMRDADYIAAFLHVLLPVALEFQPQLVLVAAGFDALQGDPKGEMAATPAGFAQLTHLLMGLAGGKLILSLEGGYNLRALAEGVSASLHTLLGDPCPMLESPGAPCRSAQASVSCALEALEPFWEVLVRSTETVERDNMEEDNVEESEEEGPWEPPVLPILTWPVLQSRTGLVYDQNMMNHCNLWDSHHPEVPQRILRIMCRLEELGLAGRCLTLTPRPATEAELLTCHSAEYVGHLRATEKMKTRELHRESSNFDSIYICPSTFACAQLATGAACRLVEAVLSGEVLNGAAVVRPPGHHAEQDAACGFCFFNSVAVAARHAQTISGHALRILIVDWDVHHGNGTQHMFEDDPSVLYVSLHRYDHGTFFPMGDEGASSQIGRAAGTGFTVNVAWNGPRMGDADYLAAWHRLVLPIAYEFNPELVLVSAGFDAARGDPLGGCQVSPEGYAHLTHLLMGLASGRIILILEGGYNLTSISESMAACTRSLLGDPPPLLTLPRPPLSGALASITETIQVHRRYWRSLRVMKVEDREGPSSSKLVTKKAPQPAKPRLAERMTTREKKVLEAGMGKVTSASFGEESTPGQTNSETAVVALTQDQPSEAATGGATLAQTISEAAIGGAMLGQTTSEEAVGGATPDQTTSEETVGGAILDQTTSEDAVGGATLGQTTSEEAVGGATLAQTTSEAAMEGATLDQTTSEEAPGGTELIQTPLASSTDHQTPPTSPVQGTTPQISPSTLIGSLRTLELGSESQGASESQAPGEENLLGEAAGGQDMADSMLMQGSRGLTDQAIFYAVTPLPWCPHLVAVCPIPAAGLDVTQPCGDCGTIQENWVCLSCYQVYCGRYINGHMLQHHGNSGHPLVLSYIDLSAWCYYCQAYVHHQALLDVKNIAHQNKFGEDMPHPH
Description: HDAC Fluorescent Activity Assay. As to conditions: for IC50: symbols ++ / +, read-out: HDAC6 Inhibition Activity (IC50 class); for inhibition at 1 µM: symbols ** / *, read-out: HDAC6 Inhibition Activity (% Inhibition class). The procedure: This protocol is to determine the IC50s or percentage of inhibition values of the test compound against HDACs.
The HDAC Fluorescent Activity Assay is based on the unique Fluorogenic Substrate and Developer combination. […] First, the Fluorogenic Substrate, which comprises an acetylated lysine side chain, is incubated with a purified HDAC enzyme. Deacetylation of the substrate sensitizes the substrate so that, in the second step, treatment with the Developer produces a fluorophore.
Testing compounds were dissolved in 100% DMSO to specific concentration. […]
1. Deliver 2× enzyme in wells of reaction plate except No Enzyme control wells. Add buffer in No En wells.
2. Deliver compounds in 100% DMSO into the enzyme mixture by Acoustic technology (Echo550; nanoliter range). Spin down and pre-incubation.
3. Deliver 2× Substrate Mixture (Fluorogenic HDAC Substrate and co-factor if applicable) in all reaction wells to initiate the reaction. Spin and shake.
4. Incubate for 1-2 hr at 30° C. with seal.
5. Add Developer with Trichostatin A (or TMP269) to stop the reaction and to generate fluorescent color.
6. Fluorescence was read (excitatory, 360; emission, 460) using the EnVision Multilabel
7. Take endpoint reading for analysis after the development reaches plateau.
The percentages of enzyme activity (relative to DMSO controls) and IC50 values were calculated using the GraphPad Prism 4 program based on a sigmoidal dose-response equation.

Another experiment addresses PI3Kδ (Homo sapiens, UniProt O00329). Briefly: PI3Kδ kinase assay (HTRF). As to conditions: for IC50: symbols ++ / +, read-out: PI3Kδ Inhibition Activity (IC50 class); for inhibition at 1 µM: symbols ** / *, read-out: PI3Kδ Inhibition Activity (% Inhibition class). The procedure: (§1) The PIP3 product is detected by displacement of biotin-PIP3 from an energy transfer complex consisting of Europium labeled anti-GST monoclonal antibody, a GST-tagged pleckstrin homology (PH) domain, biotinylated PIP3 and Streptavidin-Allophycocyanin (APC). […] The PIP3 product formed by PI 3-Kinase(h) activity displaces biotin-PIP3 from the complex resulting in a loss of energy transfer, and thus, a decrease in signal.
(§2) First, the kinase reaction with PIP2 substrate is carried out in the presence of ATP, and the reaction is quenched with stop Solution, and then, finally detect by adding Detection Mixture followed by incubation.
(§3) HEPES 50 mM (pH7.0), NaN3 0.02%, BSA 0.01%, Orthovanadate 0.1 mM, 1% DMSO.
(§4) Detection buffer: HEPES 10 mM (pH7.0), BSA 0.02%, KF 0.16 M, EDTA 4 mM.
(§5) 10 μM PIP2 substrate (PI(4,5)P2)
(§6) 10 μM ATP under standard conditions
(§7) 1. Prepare substrate in freshly prepared Reaction Buffer.
(§8) 2. Deliver kinase into the substrate solution and gently mix.
(§9) 3. Deliver compounds in 100% DMSO into the kinase reaction mixture by Acoustic technology (Echo550; nanoliter range), incubate for 10 min at room temperature.
(§10) 4. Deliver ATP into the reaction mixture to initiate the reaction.
(§11) 5. Incubate for 30 min at 30° C.
(§12) 6. Quench the reaction with Stop Solution.
(§13) 7. Add Detection Mixture, and incubate for overnight.
(§14) The emission ratio is converted into μM PIP3 production based on PIP3 standard curves.
(§15) The nonlinear regression to obtain the standard curve and IC50 values are performed using Graphpad Prism software.
In general terms: In TR-FRET formats the signal depends on donor and acceptor labels being close together.

In a further experiment the target is PI3Kα (Homo sapiens, UniProt P42336). Briefly: PI3Kα kinase assay (HTRF). The procedure: as §1, §2, §3, §4, §5, §6, §7, §8, §9, §10, §11, §12, §13, §14, §15
A further experiment concerns the target PI3Kβ (Homo sapiens, UniProt P42338). Briefly: PI3Kβ kinase assay (HTRF). The procedure:
as §1, §2, §3, §4, §5, §6, §7, §8, §9, §10, §11, §12, §13, §14, §15

Another experiment deals with PI3Kγ (Homo sapiens, UniProt P48736). Description: PI3Kγ kinase assay (HTRF). The procedure: as §1, §2, §3, §4, §5, §6, §7, §8, §9, §10, §11, §12, §13, §14, §15
Sequence of PI3Kγ (P48736 whole entry): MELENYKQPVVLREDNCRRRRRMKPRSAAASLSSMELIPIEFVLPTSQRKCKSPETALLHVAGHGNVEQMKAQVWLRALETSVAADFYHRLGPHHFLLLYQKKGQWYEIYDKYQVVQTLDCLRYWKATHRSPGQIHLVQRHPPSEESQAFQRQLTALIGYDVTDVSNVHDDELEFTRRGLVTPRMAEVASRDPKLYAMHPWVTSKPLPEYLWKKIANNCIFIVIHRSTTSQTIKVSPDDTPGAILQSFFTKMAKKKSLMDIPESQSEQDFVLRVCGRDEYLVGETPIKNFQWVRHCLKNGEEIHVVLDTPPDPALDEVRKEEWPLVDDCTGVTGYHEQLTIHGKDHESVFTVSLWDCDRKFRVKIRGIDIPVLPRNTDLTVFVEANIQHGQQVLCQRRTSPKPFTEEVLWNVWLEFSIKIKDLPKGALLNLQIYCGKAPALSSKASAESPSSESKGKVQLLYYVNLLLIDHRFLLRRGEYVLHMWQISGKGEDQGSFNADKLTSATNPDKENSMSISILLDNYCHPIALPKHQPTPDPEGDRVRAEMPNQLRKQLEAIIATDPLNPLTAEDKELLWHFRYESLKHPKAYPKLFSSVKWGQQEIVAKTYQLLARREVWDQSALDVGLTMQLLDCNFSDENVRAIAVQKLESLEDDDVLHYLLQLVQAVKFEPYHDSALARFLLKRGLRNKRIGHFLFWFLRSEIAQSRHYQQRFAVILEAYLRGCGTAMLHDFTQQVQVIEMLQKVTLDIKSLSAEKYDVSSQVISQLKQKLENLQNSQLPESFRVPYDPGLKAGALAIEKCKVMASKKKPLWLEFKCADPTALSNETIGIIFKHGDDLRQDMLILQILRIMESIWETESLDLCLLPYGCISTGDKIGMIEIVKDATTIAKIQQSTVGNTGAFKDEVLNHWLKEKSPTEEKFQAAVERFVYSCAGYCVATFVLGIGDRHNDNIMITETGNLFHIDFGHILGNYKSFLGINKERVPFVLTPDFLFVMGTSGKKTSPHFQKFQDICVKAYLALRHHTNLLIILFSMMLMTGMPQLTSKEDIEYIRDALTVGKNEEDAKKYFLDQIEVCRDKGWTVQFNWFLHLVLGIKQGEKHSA

Sequence of PI3Kβ (P42338 whole entry): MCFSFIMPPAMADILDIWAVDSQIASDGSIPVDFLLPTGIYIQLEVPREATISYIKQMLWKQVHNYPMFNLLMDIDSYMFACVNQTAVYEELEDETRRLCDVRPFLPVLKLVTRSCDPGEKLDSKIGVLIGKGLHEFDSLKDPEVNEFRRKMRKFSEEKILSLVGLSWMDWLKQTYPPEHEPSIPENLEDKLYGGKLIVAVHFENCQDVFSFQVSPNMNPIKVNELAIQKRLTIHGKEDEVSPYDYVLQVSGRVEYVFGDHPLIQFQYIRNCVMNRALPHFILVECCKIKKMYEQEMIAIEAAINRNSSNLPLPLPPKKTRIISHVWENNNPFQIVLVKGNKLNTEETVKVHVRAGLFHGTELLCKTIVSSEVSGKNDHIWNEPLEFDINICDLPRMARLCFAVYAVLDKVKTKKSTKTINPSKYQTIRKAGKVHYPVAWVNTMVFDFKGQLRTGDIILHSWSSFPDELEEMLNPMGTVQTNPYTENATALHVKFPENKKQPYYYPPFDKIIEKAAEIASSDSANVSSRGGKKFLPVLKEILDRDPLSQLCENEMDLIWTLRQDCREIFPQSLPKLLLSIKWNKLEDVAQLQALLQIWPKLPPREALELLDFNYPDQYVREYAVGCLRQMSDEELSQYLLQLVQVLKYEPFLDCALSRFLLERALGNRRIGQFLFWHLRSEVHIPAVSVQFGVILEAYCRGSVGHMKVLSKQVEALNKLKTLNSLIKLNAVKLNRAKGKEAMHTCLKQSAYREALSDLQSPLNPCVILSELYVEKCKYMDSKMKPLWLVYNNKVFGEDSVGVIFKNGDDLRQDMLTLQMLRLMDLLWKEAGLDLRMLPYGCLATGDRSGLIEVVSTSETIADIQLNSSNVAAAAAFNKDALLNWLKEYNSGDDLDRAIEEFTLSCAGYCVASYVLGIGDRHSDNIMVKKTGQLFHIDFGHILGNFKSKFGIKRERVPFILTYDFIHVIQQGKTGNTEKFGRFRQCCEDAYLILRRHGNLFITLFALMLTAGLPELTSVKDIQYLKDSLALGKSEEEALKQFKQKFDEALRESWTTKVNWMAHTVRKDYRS
Sequence of PI3Kβ (P27986 whole entry partner): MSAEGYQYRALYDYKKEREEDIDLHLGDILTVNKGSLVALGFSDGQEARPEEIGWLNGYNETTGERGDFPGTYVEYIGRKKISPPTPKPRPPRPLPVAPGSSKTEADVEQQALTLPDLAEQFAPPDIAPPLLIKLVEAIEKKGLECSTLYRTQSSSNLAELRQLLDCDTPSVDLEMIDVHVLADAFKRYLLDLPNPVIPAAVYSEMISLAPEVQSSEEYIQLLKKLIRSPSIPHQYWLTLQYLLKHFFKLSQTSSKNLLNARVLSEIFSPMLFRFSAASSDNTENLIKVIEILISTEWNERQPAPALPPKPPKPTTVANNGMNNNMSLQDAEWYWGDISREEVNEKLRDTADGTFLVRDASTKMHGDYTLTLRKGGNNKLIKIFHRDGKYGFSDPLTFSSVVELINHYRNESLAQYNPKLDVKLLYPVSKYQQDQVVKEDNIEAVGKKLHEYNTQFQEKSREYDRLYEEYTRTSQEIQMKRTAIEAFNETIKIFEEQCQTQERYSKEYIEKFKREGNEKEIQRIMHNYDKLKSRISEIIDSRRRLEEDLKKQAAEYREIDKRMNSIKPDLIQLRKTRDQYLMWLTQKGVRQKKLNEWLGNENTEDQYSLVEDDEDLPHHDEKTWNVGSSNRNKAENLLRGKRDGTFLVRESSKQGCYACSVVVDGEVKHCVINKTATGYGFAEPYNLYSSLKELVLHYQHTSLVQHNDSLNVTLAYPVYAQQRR
Sequence of PI3Kα (P42336 whole entry): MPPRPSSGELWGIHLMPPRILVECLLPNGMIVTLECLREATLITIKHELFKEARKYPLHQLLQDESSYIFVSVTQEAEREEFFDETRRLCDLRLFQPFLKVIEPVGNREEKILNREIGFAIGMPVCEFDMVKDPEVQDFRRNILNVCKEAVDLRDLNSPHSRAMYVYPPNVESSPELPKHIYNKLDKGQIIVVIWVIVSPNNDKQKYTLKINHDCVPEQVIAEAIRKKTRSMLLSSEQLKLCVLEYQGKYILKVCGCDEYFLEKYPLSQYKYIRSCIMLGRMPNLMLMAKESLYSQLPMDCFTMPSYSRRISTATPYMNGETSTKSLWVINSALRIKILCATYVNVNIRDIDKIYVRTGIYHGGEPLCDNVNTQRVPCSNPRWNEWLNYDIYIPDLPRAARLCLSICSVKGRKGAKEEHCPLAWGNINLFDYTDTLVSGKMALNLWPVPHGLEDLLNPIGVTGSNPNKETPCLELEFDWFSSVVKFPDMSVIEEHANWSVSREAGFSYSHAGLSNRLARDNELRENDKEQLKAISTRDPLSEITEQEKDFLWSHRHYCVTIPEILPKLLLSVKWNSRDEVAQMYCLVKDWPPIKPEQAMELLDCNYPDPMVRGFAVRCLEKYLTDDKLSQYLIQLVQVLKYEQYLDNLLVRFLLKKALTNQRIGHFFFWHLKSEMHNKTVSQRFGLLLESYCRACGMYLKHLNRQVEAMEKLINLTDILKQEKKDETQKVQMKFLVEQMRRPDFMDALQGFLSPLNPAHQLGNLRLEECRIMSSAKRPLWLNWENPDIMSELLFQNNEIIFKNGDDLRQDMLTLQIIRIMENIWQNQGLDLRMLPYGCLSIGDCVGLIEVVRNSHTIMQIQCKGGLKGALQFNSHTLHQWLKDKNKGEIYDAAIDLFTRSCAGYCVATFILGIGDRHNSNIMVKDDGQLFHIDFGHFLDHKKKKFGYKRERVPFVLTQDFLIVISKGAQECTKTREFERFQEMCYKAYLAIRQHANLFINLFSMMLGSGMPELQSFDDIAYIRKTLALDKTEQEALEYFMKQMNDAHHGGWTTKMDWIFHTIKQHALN
Sequence of PI3Kα (P27986 whole entry partner): as the sequence (P27986 whole entry partner) above
Sequence of PI3Kδ (O00329 whole entry): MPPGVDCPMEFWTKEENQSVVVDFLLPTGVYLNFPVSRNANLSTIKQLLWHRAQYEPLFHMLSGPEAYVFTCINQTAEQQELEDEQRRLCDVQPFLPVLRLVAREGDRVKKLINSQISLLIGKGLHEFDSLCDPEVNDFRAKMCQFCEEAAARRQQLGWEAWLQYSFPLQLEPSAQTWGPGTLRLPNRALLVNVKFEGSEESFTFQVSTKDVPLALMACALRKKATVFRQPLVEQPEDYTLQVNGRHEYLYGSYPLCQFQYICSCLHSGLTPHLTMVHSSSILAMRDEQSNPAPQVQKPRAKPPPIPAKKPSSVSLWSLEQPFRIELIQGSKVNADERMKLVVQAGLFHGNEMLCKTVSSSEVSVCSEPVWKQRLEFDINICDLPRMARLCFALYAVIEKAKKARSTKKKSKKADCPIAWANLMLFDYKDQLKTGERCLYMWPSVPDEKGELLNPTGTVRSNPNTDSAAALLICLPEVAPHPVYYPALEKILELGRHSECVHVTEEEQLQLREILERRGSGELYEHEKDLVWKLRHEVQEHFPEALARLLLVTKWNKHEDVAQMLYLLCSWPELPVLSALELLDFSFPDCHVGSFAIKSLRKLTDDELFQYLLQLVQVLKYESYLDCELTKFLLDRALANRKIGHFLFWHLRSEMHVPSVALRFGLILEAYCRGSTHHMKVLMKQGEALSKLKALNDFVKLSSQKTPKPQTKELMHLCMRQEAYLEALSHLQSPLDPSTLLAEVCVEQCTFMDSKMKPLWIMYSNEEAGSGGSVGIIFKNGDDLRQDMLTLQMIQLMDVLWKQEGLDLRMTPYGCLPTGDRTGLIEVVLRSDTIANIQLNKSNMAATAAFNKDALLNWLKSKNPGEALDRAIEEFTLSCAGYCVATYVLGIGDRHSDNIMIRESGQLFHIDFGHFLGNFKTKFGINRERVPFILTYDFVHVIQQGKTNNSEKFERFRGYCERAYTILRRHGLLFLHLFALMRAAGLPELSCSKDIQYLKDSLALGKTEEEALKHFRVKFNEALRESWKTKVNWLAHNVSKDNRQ
Sequence of PI3Kδ (P27986 whole entry partner): as the sequence (P27986 whole entry partner) above

On to `CC[C@H](Nc1ncnc2[nH]cnc12)c1nc(NCCCCCC(=O)NO)c2ccccc2n1` [XXXI, (S)-6-((2-(1-((9H-purin-6-yl)amino)propyl)quinazolin-4-yl)amino)-N-hydroxyhexanamide], for which the results for the IC50 on HDAC6 and at PI3Kδ were < 100 nM and > 100 nM, respectively.

`CC[C@H](Nc1ncnc2[nH]cnc12)c1nc(-c2ccc(C(=O)NO)cc2)c2ccccc2n1` [XXXIV, (S)-4-(2-(1-((9H-purin-6-yl)amino)propyl)quinazolin-4-yl)-N-hydroxybenzamide]: the inhibition at 1 µM is < 85% against PI3Kα; > 90% at HDAC6; < 90% on PI3Kδ; < 85% against PI3Kβ; < 85% against PI3Kγ.

With `CC[C@H](Nc1ncnc2[nH]cnc12)c1nc2cccc(CC(=O)c3ccc(C(=O)Nc4ccccc4N)cc3)c2c(=O)n1-c1ccccc1` [XXIII, (S)-4-(2-(2-(1-((9H-purin-6-yl)amino)propyl)-4-oxo-3-phenyl-3,4-dihydroquinazolin-5-yl)acetyl)-N-(2-aminophenyl)benzamide], the inhibition at 1 µM was < 85% against PI3Kα; < 90% on HDAC6; > 90% on PI3Kδ; < 85% against PI3Kβ; < 85% against PI3Kγ.

On to `Cc1nc2cccc(NCCCCC(=O)NO)c2c(=O)n1-c1ccccc1` [LXII, N-hydroxy-5-((2-methyl-4-oxo-3-phenyl-3,4-dihydroquinazolin-5-yl)amino)pentanamide], for which, at HDAC6, the IC50 was > 100 nM.

As for `O=C(CCCCNc1cccc2nc(C3CC3)n(-c3ccccc3)c(=O)c12)NO` [LXIII, 5-((2-cyclopropyl-4-oxo-3-phenyl-3,4-dihydroquinazolin-5-yl)amino)-N-hydroxypentanamide], the IC50 on HDAC6 was > 100 nM.

As for `CC[C@H](Nc1ncnc2[nH]cnc12)c1nc(N2CCN(c3nc(C(=O)NO)co3)CC2)c2ccccc2n1` [XXXIII, (S)-2-(4-(2-(1-((9H-purin-6-yl)amino)propyl)quinazolin-4-yl)piperazin-1-yl)-N-hydroxyoxazole-4-carboxamide], the inhibition at 1 µM was < 85% at PI3Kα; > 90% on HDAC6; < 90% on PI3Kδ; < 85% at PI3Kβ; < 85% at PI3Kγ.

Turning to `CC[C@H](Nc1ncnc(N)c1C(N)=O)c1nc2cccc(NCc3ccc(C(=O)NO)cn3)c2c(=O)n1-c1ccccc1` [LVII, (S)-4-amino-6-((1-(5-(((5-(hydroxycarbamoyl)pyridin-2-yl)methyl)amino)-4-oxo-3-phenyl-3,4-dihydroquinazolin-2-yl)propyl)amino)pyrimidine-5-carboxamide], the IC50 at HDAC6 was < 100 nM; on PI3Kδ, > 100 nM.

As to `O=C(NO)c1ccc(CNc2cccc3nc(C4CC4)n(-c4ccccc4)c(=O)c23)cc1` [LXI, 4-(((2-cyclopropyl-4-oxo-3-phenyl-3,4-dihydroquinazolin-5-yl)amino)methyl)-N-hydroxybenzamide], the IC50 at HDAC6 was < 100 nM.

Regarding `CC[C@H](Nc1ncnc2[nH]cnc12)c1nc2cccc(-c3cnc(C(=O)NO)nc3)c2c(=O)n1-c1ccccc1` [XXII, (S)-5-(2-(1-((9H-purin-6-yl)amino)propyl)-4-oxo-3-phenyl-3,4-dihydroquinazolin-5-yl)-N-hydroxypyrimidine-2-carboxamide], the inhibition at 1 µM against PI3Kα is < 85%; at HDAC6 it was < 90%; at PI3Kδ, > 90%; against PI3Kβ, < 85%; against PI3Kγ, < 85%.

`CC[C@H](Nc1nc(N)nc(C)c1C#N)c1nc2cccc(C#CCCCC(=O)NO)c2c(=O)n1-c1ccccc1` [LVI, (S)-6-(2-(1-((2-amino-5-cyano-6-methylpyrimidin-4-yl)amino)propyl)-4-oxo-3-phenyl-3,4-dihydroquinazolin-5-yl)-N-hydroxyhex-5-ynamide]: the inhibition at 1 µM at HDAC6 was > 90%. Moreover, at PI3Kδ, the IC50 is < 100 nM.

For `CC[C@H](Nc1nc(N)nc(C)c1C#N)c1nc2cccc(N3CCC(CCC(=O)NO)CC3)c2c(=O)n1-c1ccccc1` [Compound L, (S)-3-(1-(2-(1-((2-amino-5-cyano-6-methylpyrimidin-4-yl)amino)propyl)-4-oxo-3-phenyl-3,4-dihydroquinazolin-5-yl)piperidin-4-yl)-N-hydroxypropanamide], the IC50 at HDAC6 and on PI3Kδ was < 100 nM throughout.

Turning to `CC[C@H](Nc1nc(N)nc(C)c1C#N)c1nc2cccc(N(C)Cc3ccc(C(=O)NO)cc3)c2c(=O)n1-c1ccccc1` [LI, (S)-4-(((2-(1-((2-amino-5-cyano-6-methylpyrimidin-4-yl)amino)propyl)-4-oxo-3-phenyl-3,4-dihydroquinazolin-5-yl)(methyl)amino)methyl)-N-hydroxybenzamide], the IC50 on HDAC6 and at PI3Kδ was < 100 nM throughout.

In the case of `CC[C@H](Nc1ncnc2[nH]cnc12)c1nc2cccc(NCc3ccc(C(=O)N(C)O)cc3)c2c(=O)n1-c1ccccc1` [XXVII, (S)-4-(((2-(1-((9H-purin-6-yl)amino)propyl)-4-oxo-3-phenyl-3,4-dihydroquinazolin-5-yl)amino)methyl)-N-hydroxy-N-methylbenzamide], the IC50 on HDAC6 is > 100 nM.

Turning to `CC[C@H](Nc1ncnc2[nH]cnc12)c1nc2cccc(CNC(=O)c3cccc(B(O)O)c3)c2c(=O)n1-c1ccccc1` [XXV, (S)-(3-(((2-(1-((9H-purin-6-yl)amino)propyl)-4-oxo-3-phenyl-3,4-dihydroquinazolin-5-yl)methyl)carbamoyl)phenyl)boronic acid], the inhibition at 1 µM is < 85% at PI3Kα; < 90% on HDAC6; > 90% at PI3Kδ; < 85% against PI3Kβ; < 85% at PI3Kγ.
